In US11058717B2, “Application of substances containing AuCs in preparing medicine for preventing and treating Alzheimer's disease” (Shenzhen Profound-View Pharma Tech Co., Ltd, priority 2017, dated 2021):

Legend:
Aβ(1-40) = target: T1, Aβ(1-40) (Homo sapiens, UniProt P05067); assay: AFM topography of Aβ(1-40) after coincubation for 48 h; format: biochemical; details: coincubated for 48 h
T1 construct: Freeze-dried powder of amyloid polypeptide Aβ(1-40) (Invitrogen Corp.); purchased Invitrogen Corp
T1 sequence (P05067 672-711 limits assumed): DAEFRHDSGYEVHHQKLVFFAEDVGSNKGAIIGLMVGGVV
Protocol: Panel A is the AFM topography after Aβ(1-40) was incubated alone for 48 h. Panel B is an AFM topography after Aβ(1-40) was coincubated with L-NIBC for 48 h. Panel C and panel D are AFM topographies after Aβ(1-40) was coincubated with gold nanoparticles with an average particle size of 6.0 nm and 3.6 nm respectively (modified with L-NIBC) for 48 h. And panel E is an AFM topography after Aβ(1-40) was coincubated with AuCs in an average particle size of 1.8 nm (modified with L-NIBC) for 48 h.

[1] = test system: SH-SY5Y neuroblastoma cell line; assay: Aβ induced AD cell model, cell viability by CCK-8; format: cell-based; details: 0.01-20 ppm (L-NIBC 20 ppm); 20 μM Aβ(1-40), 24 h
Protocol: The cell viability was used as an index in the experiment of this embodiment. […] The cells used in the experiment were SH-SY5Y neuroblastoma cell line. […] Specific method:
1) SH-sy5y cells (cells had passed to the sixth generation) in logarithmic growth phase were diluted with complete medium (MEM+10% FBS+1% penicillin-streptomycin) to get a cell suspension in a density of 5×10^4/mL. The suspension was inoculated 200 μL per well into a 96-well plate, and cultivated in an incubator with 5% CO2 at 37° C. A sample was added when the cells attached to the wells.
2) 100 μL ligand-modified AuCs samples or ligand-modified gold nanoparticles samples, at different particle sizes and at concentrations of 0.04 ppm, 0.4 ppm, 4 ppm, 20 ppm, 40 ppm and 80 ppm respectively, which were dissolved by maintenance medium (MEM+2% FBS+1% penicillin-streptomycin) were added into the incubated suspension obtained from Step 1). After incubating in the incubator for 2 h, 100 μL 80 μM Aβ(1-40) was added, and then the mixture was incubated in the incubator for 24 h. […] The culture medium was removed, maintenance medium (MEM) containing 10% CCK-8 at 100 μL/well was added and was incubated for 4 h, the absorbance of each well at 450 nm was measured to reflect the prevention and treatment effects of ligand-modified AuCs on Aβ(1-40) lesion.

α-syn = target: T2, α-syn (Homo sapiens, UniProt P37840); assay: In vitro α-syn aggregation kinetics (ThT fluorescent labeling); format: biochemical; details: L-NIBC only, 1.0 and 10.0 ppm; 35 μM α-syn, 37° C.
T2 construct: purchased Bachem Corp
Text: Thioflavin T (abbreviation: ThT) is a dye for dyeing amyloid fibers specifically. […] When it encounters amyloid polypeptide or protein with a fiber structure, it will immediately couple with the amyloid polypeptides or proteins and its fluorescence intensity will increase exponentially. For this reason, ThT is widely used as markers to monitor amyloidosis of peptides or proteins. This embodiment utilizes ThT fluorescent labeling method to monitor the kinetics process of fibrosis aggregation of α-syn with the existence of AuCs. The specific experiment method was as follows:
Pretreatment of α-syn monomers: Freeze-dried powder (Bachem Corp.) of α-syn was dissolved in HFIP to obtain a 1 g/L α-syn solution. The solution was incubated at room temperature for 2-4 h after sealing, then blowed to dry HFIP by high-purity nitrogen in a fume hood. […]
Sample preparation and detection: Ligand-modified AuCs in different concentrations listed in Table 1 were added to 35 μM α-syn PBS solutions respectively, and incubated continuously in a 96-well plate at 37° C., by ThT fluorescent labeling method, and were monitored the fluorescence intensity by microplate reader once every 10 minutes. The kinetic process of α-syn aggregation was characterized through the change of fluorescence intensity of ThT. […]

## CC(C)C(=O)N[C@@H](CS)C(=O)O [L-NIBC, N-isobutyryl-L-cysteine]
Aβ(1-40)
  Aβ(1-40) fibers in AFM topography: no obvious effect on the formation of Aβ(1-40) fibers
[1]
  effect on cell viability in Aβ induced AD cell model: did not improve cell viability
α-syn
  effect on kinetics of α-syn aggregation: did not have an obvious effect
